Literature values, collected in US20080045610A1, “Methods for regulating neurotransmitter systems by inducing counteradaptations” (priority 2004, published 2008).

Columns and labels:
[1] = parent compound itself
[2] = in vivo
[3] = system: opiate receptor; details: compared with native morphine compound

For C=C1CC[C@@]2(O)[C@H]3Cc4ccc(O)c5c4[C@@]2(CCN3CC2CC2)[C@H]1O5 [nalmefene], the half-life [1] is given as 8 h and the liver toxicity [2] is given as “no dose dependent liver toxicity”.
For CC(=O)Oc1ccc2c3c1O[C@H]1[C@@H](OC(C)=O)C=C[C@H]4[C@@H](C2)N(C)CC[C@@]341 [diacetylmorphine], the oral bioavailability is listed as ~67%.
In the case of CN1CC[C@]23c4c5ccc(O)c4O[C@H]2CC=C[C@H]3[C@H]1C5 [6-desoxymorphine], the “activity relative to native morphine” value [3] is listed as 10 times.
